Read-outs that look alike come from different tables or passages of the source.
Legend:
epileptic seizures = experiment: ED50 of the individual compounds, seizure model not given (various models of the rat and the mouse); assay type: in vivo; conditions: ip
Description: The skilled person may determine the ED50 values by methods known in the art. It is preferred that the ED50 values are determined by preclinical or/and clinical trials. Published ED50 values may also be used. […] Tables 5 and 6 disclose specific ED50 values obtained in various models of the rat and the mouse. A person skilled in the art knows that in a particular model, among different species, ED50 values show a variation by a factor of up to 5 or even larger.

6 Hz-induced seizures [1] = experiment: 6 Hz seizure test in mice, with isobolographic analysis of drug combinations; conditions: for anticonvulsant effects against 6 Hz seizure: i.p., mice
[2] = tested on: 6 Hz psychomotor seizures; conditions: determined in the anticonvulsant drug screening program of NINDS; cited from earlier work
mouse cortical neurons = mouse cortical neurons (Bialer et al., 2002); cited from earlier work
[3] = tested on: refractory self-sustaining status epilepticus; conditions: in vivo; cited from earlier work
[4] = tested on: cobalt-homocysteine-induced status epilepticus; conditions: Bialer et al., 2001, 2002; cited from earlier work
[5] = tested on: lithium-pilocarpine-induced status epilepticus; conditions: Bialer et al., 2001, 2002; cited from earlier work
[6] = tested on: pattern of neuronal activation; conditions: Duncan and Kohn (2004); cited from earlier work
[7] = Clinical population pharmacokinetic analysis
[8] = tested on: drug metabolizing enzymes; experiment: Inhibition, induction and metabolism by drug metabolizing enzymes; conditions: a large variety of enzymes
6 Hz-induced seizures [9] = conditions: literature observation (Gower et al., 1993; Klitgaard et al., 1998); cited from earlier work
[10] = approximate value, model not stated, read-out: ED50

SMILES: NC(=O)N1c2ccccc2C=Cc2ccccc21 [CBZ, carbamazepine]
- ED50 (epileptic seizures; [10]): ~50 mg/kg
- anticonvulsant effects against 6 Hz seizure (6 Hz-induced seizures [1]; drugs administered alone): dose-dependent anticonvulsant effects

SMILES: NCC1(CC(=O)O)CCCCC1 [GBP, gabapentin]
- ED50 (epileptic seizures): ~220 mg/kg
- anticonvulsant effects against 6 Hz seizure (6 Hz-induced seizures [1]; drugs administered alone): dose-dependent anticonvulsant effects

SMILES: COC[C@@H](NC(C)=O)C(=O)NCc1ccccc1 [LCM, R-2-acetamido-N-benzyl-3-methoxypropionamide]
- ED50 (epileptic seizures): ~10 mg/kg
- ED50 [2]: 9.9 mg/kg
- GABA currents (mouse cortical neurons): increased
- glutamate transmission (mouse cortical neurons): inhibited glutamate transmission indirectly
- activity against refractory self-sustaining status epilepticus [3]: active
- efficacy against cobalt-homocysteine-induced status epilepticus [4]: effective
- efficacy against lithium-pilocarpine-induced status epilepticus [5]: effective
- specific pattern of neuronal activation [6]: attenuated
- effect of LCM on plasma levels of AEDs or vice versa [7]: no evidence for any effect
- inhibition or induction of drug metabolizing enzymes [8]: does not inhibit or induce
- ED50 (6 Hz-induced seizures [1]; Mus musculus, ip, 0.5 h): 10.1 mg/kg
- anticonvulsant effects against 6 Hz seizure (6 Hz-induced seizures [1]; drugs administered alone): dose-dependent anticonvulsant effects
- potency compared to the other tested AEDs (6 Hz-induced seizures [1]; drugs administered alone, lowest ED50): highest potency

SMILES: CC[C@@H](C(N)=O)N1CCCC1=O [LEV, levetiracetam]
- ED50 (epileptic seizures): ~20 mg/kg
- protection in the 6Hz test (6 Hz-induced seizures [9]): complete protection
- anticonvulsant effects against 6 Hz seizure (6 Hz-induced seizures [1]; drugs administered alone): dose-dependent anticonvulsant effects

SMILES: Nc1nnc(-c2cccc(Cl)c2Cl)c(N)n1 [LTG, lamotrigine]
- ED50 (epileptic seizures): ~85 mg/kg
- anticonvulsant effects against 6 Hz seizure (6 Hz-induced seizures [1]; drugs administered alone): dose-dependent anticonvulsant effects

SMILES: O=C1NC(=O)C(c2ccccc2)(c2ccccc2)N1 [PHT, phenytoin]
- anticonvulsant effects against 6 Hz seizure (6 Hz-induced seizures [1]; drugs administered alone): dose-dependent anticonvulsant effects

SMILES: CC1(C)O[C@@H]2[C@@H](CO[C@@]3(COS(N)(=O)=O)OC(C)(C)O[C@@H]23)O1 [TPM, topiramate]
- ED50 (epileptic seizures; [10]): ~300 mg/kg
- anticonvulsant effects against 6 Hz seizure (6 Hz-induced seizures [1]; drugs administered alone): dose-dependent anticonvulsant effects

Source: patent EP1925314A1, “Pharmaceutical composition with synergistic anticonvulsant effect” (SCHWARZ PHARMA AG, priority 2006, dated 2008)
